Experimental data published in PMC10840179, “Chemical and biological characterization of Melaleuca subulata (Cheel) Craven leaves’ volatile constituents supported by chemometric analysis and molecular docking” (BMC Complementary Medicine and Therapies, 2024).
Values after ≈ are worked out from the molar mass of the structure shown.

Target: T1, collagenase
T1 construct: gene colG; docking used another collagenase (printed PDB 465C / 456C)
Test: FALGPA hydrolysis, ninhydrin, absorbance at […] nm
Assay type: biochemical
Conditions: FALGPA substrate, 50 mM tricine, 37 °C, 20 min preincubation; metal chelator

Structure (SMILES): O=C(O)CN(CCN(CC(=O)O)CC(=O)O)CC(=O)O [EDTA]
- IC50 ± SD (% inhibition ± SD) / Anti-collagenase: 315.12 ± 2.21 µg/mL (≈ 1080 µM)
